Measured values reported in the supplement of paper PMC10307832.

What was measured:
Experiment in all cases: relative viability (nuclei count vs DMSO), 5 days (fraction); higher = more cells survive
Vemurafenib + OSI-027 = compound: CCCS(=O)(=O)Nc1ccc(F)c(C(=O)c2c[nH]c3ncc(-c4ccc(Cl)cc4)cc23)c1F [Vemurafenib] + COc1cccc2cc(-c3nc([C@H]4CC[C@H](C(=O)O)CC4)n4ncnc(N)c34)[nH]c12 [OSI-027] (partner 0.5 µM)
Outline: (§1)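 One day after seeding in 1536-well plates, lung cancer cell lines were dosed by pin tool. Dosing was either single-drug or a fixed anchor-drug dose plus five library-drug doses (not always all listed) in √10 steps. After 5 days, nuclei were stained in one fix-and-stain step and counted on 4× images, and relative viability is the nuclei count of treated wells over that of vehicle wells, given as the median of duplicate plates.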

Alpelisib + Tozasertib = compound: Cc1nc(NC(=O)N2CCC[C@H]2C(N)=O)sc1-c1ccnc(C(C)(C)C(F)(F)F)c1 [Alpelisib] + Cc1cc(Nc2cc(N3CCN(C)CC3)nc(Sc3ccc(NC(=O)C4CC4)cc3)n2)n[nH]1 [Tozasertib] (partner 0.1 µM)
Outline: as §1

Vemurafenib + Linsitinib = compound: CCCS(=O)(=O)Nc1ccc(F)c(C(=O)c2c[nH]c3ncc(-c4ccc(Cl)cc4)cc23)c1F [Vemurafenib] + C[C@]1(O)C[C@@H](c2nc(-c3ccc4ccc(-c5ccccc5)nc4c3)c3c(N)nccn32)C1 [Linsitinib] (partner 1 µM)
Outline: as §1

OSI-027 + Pictilisib = compound: COc1cccc2cc(-c3nc([C@H]4CC[C@H](C(=O)O)CC4)n4ncnc(N)c34)[nH]c12 [OSI-027] + CS(=O)(=O)N1CCN(Cc2cc3nc(-c4cccc5[nH]ncc45)nc(N4CCOCC4)c3s2)CC1 [Pictilisib] (partner 1 µM)
Outline: as §1

Cell Line	relative viability (Vemurafenib + OSI-027; first compound 0.03162 µM)	relative viability (Vemurafenib + OSI-027; first compound 0.1 µM)	relative viability (Vemurafenib + OSI-027; first compound 1 µM)	relative viability (Alpelisib + Tozasertib; first compound 0.04 µM)	relative viability (Alpelisib + Tozasertib; first compound 0.1265 µM)	relative viability (Alpelisib + Tozasertib; first compound 0.4 µM)	relative viability (Alpelisib + Tozasertib; first compound 1.265 µM)	relative viability (Alpelisib + Tozasertib; first compound 4 µM)	relative viability (Vemurafenib + Linsitinib; first compound 0.03162 µM)	relative viability (Vemurafenib + Linsitinib; first compound 0.1 µM)	relative viability (Vemurafenib + Linsitinib; first compound 0.3162 µM)	relative viability (Vemurafenib + Linsitinib; first compound 1 µM)	relative viability (OSI-027 + Pictilisib; first compound 0.01 µM)	relative viability (OSI-027 + Pictilisib; first compound 0.03162 µM)	relative viability (OSI-027 + Pictilisib; first compound 0.1 µM)	relative viability (OSI-027 + Pictilisib; first compound 0.3162 µM)	relative viability (OSI-027 + Pictilisib; first compound 1 µM)	relative viability (Vemurafenib + OSI-027; first compound 0.3162 µM)
HCC-44	0.419	0.361	0.426	0.883	0.935	1.11	0.376	0.607	0.612	0.67	0.709	0.716	0.521	0.572	0.481	0.32	0.365	
HCC-78	0.366	0.322	0.398	0.411	0.318	0.504	0.401	0.292	0.627	0.458	0.679	0.502	0.202	0.225	0.184	0.19	0.207	0.649
HCC-366	0.886	0.843	0.418	0.151	0.117	0.13	0.0701	0.0516	0.637	0.603		0.601	0.179	0.154	0.165	0.124	0.0569	0.674
HCC-827	0.754		0.704	0.462	0.409	0.508	0.398	0.366	0.878		0.924	0.926	0.9	0.76	0.891	0.878	0.483	0.766
HOP-62	0.702	0.938	0.751	0.328	0.374	0.465	0.322	0.292	0.78	1.01	0.94	0.841	0.565	0.76	0.467	0.674	0.254	0.678
IA-LM									0.537	0.53	0.603	0.554	0.423	0.176	0.181	0.119	0.107	
LC-2-ad	0.753	0.629	0.747	0.377	0.372	0.431	0.307	0.348	0.801	0.755	0.873	0.749	0.427	0.373	0.501	0.474	0.221	
LCLC-97TM1	0.49	0.612	0.43	0.206	0.176	0.178	0.146	0.117	0.181	0.212	0.175	0.157	0.211	0.208	0.199	0.116	0.126	0.713
LCLC-103H	0.41	0.474	0.443	0.462	0.448	0.482	0.357	0.37	1.09	1.04	1.06	1.18	0.588	0.641	0.582	0.568	0.561	0.39
NCI-H522	0.778	0.635	0.697	0.519	0.558	0.527	0.47	0.37										0.638
NCI-H1299									1.02	0.958	0.83	0.951	0.787	0.627	0.548	0.338	0.242	
NCI-H1563	0.693	0.757	0.723						1.2	1.11	1.3	1.25	0.619	0.625	0.604	0.631	0.673	0.734
NCI-H1623	0.405		0.419	0.446	0.338	0.388	0.347	0.29										0.521
NCI-H1648	0.261		0.259		0.68	0.607	0.27	0.22										0.335
NCI-H1650		0.448	0.537	0.464	0.287	0.375	0.332	0.36					0.551	0.553	0.474	0.432	0.347	
NCI-H1703									0.738	0.644	0.637	0.787	0.318	0.242	0.244	0.231	0.201	
NCI-H1792	0.705	0.616	0.704						0.505	0.417	0.484	0.516	0.288	0.166	0.213	0.161	0.232	
NCI-H2170	0.67	0.194	0.7	0.637	0.727	0.771	0.625	0.298					0.284	0.295	0.245	0.266	0.258	0.686
NCI-H2342	0.621	0.561	0.643	0.419	0.473	0.389	0.401	0.367										0.577
SW 900	0.527	0.545	0.433	0.734	0.5	0.88	0.571	0.358										0.535
